Article PMC8408311 (Diabetologia, 2021)
Read-outs that look alike come from different tables or passages of the source.

Assays:
[1] = tested on: primary cilium of islet beta cells; assay: Cilia Ca2+ imaging in mouse islets; assay type: cell-based; conditions: GABA 1-10 nM; GABAB-receptor agonist Baclofen; Vigabatrin (inhibition of GABA degradation)
[2] = tested on: INS1E cells; assay: Fatty acid toxicity in INS1E cells; assay type: cell-based, rat; conditions: 24 h
[3] = tested on: INS-1 832/13 cells; assay: mRNA expression in INS-1 832/13 cells under ER stress; assay type: cell-based, rat
[4] = assay type: in vivo, human; conditions: comparator arm
[5] = Insulin icodec titration trial, CGM hypoglycaemia duration, insulin-naive T2D; assay type: in vivo, human; conditions: 4.4-7.2 mmol/L ±4 U/day
[6] = tested on: male Wistar rats; assay: 30-min filament middle cerebral artery occlusion; assay type: in vivo, rat; conditions: 48 h after MCAO; healthy 18 points, maximal deficit 3 points
[7] = Ciprofibrate 5-week crossover study in prediabetic male volunteers; assay type: in vivo, human
[8] = assay type: in vivo, human; conditions: once weekly
[9] = Contribution of HFCS-55 fructose to hepatic fatty acid synthesis, 13C/2H NMR; assay type: in vivo, mouse
[10] = tested on: H9C2 cells; assay: 2-NBD-Glucose uptake; assay type: cell-based; conditions: for 2-NBD-Glucose uptake after insulin: 100nM 30min, 20 minutes; for 2-NBD-Glucose uptake after MG: 25μM MG 24h, after 60 min
[11] = SUSTAIN 10 post hoc analysis by baseline SGLT-2i; assay type: in vivo, human
[12] = RESTORE-2 naive cohort, retrospective propensity score matched study; assay type: in vivo, human; conditions: for Incidence rate of blood glucose <54 mg/dl / Incidence rate of blood glucose ≤70 mg/dl: during 6 months; for FBG change at 6 months / FBG reduction at 6 months / HbA1c reduction from baseline to 12 months: in vivo; for HbA1c change from baseline to 6 months: propensity score matched, 357 per cohort
[13] = tested on: mouse cardiac endothelial cells (MCECs); assay: Methylglyoxal treatment of mouse cardiac endothelial cells; assay type: cell-based
[14] = Sodium-phenylbutyrate 2-week crossover trial in type 2 diabetes
[15] = SURPASS-2, add-on to metformin in type 2 diabetes; assay type: in vivo, human; conditions: TZP range over 5-15 mg; SEMA 1 mg
[16] = 3-month exercise training with carnosine or placebo in overweight elderly; assay type: in vivo, human
[17] = 2-step hyperinsulinemic-euglycemic clamp
[18] = training combined with carnosine 2g/day

## NCCCC(O)(P(=O)(O)O)P(=O)(O)O [alendronate]
Ever use
  Crude OR of developing type 2 diabetes: 0.93
  Multiple adjusted OR of developing type 2 diabetes: 0.64
More than 8 years of use
  Adjusted OR of developing type 2 diabetes: 0.47

## NCCCC(=O)O [GABA, Gamma aminobutyric acid]
[1]
  Increase of occurrence of cilia Ca2+ flashes: 3-4 fold

## CCCCCCCCCCCCCCCC(=O)O [PA, palmitate]
[2]; INS1E-SPL cells, 500 μM
  Viability decrease stronger than in INS1E-ctr: ~ 25%
[2]; INS1E-SPP cells, 500 μM
  Cell viability loss: 20%

## C/C=C(/C)C(=O)O[C@H]1C(C)=C2[C@H]([C@@H]1OC(=O)CCCCCCC)[C@@](C)(OC(C)=O)C[C@H](OC(=O)CCC)[C@@]1(O)[C@H]2OC(=O)[C@@]1(C)O [thapsigargin]
[3]
  Decrease of insulin mRNA expression (Ins1 and Ins2): 85%
  Increase of Atf4 mRNA expression: 3.0 fold
  Increase of Atf6 mRNA expression: 1.8 fold
  Increase of Cebpg mRNA expression: 3.7 fold
  Increase of Xbp1s mRNA expression: 2.9 fold

## insulin glargine U100 [IGlar U100]
[4]
  Overall hypoglycaemic episode duration, median (IQR): 35.0 (20.0, 60.0) min
[5]
  Overall hypoglycaemic episode duration, median (IQR): 35.0 (20.0, 70.0) min

## CN(C)C(=N)N=C(N)N [MET, metformin]
[6]
  Garcia score (neurological deficit): 12.0 (6.5; 12.5) points

## CC(C)(Oc1ccc(C2CC2(Cl)Cl)cc1)C(=O)O (stereo not shown) [ciprofibrate]
[7]; 100 mg/day for 5 weeks
  Hepatic lipid content: 10.4 ± 10.0%
  Serum triglycerides: 1.57 ± 1.05 mmol/L
[7]; 18F-FDG PET during clamp
  Myocardial net glucose uptake: 0.040 ± 0.024 ml/100ml/min/mIU insulin
[7]; 18F-FDG PET during hyperinsulinemic euglycemic clamp
  Net hepatic glucose uptake (Ki): 0.7 ± 0.2 ml/100ml/min

## Basal insulin Fc [BIF]
[8]; BIF-A1, fasting glucose target ≤7.8 mmol/L
  HbA1c reduction from baseline to Week 32, mean±SE: 0.6±0.1%
[8]; BIF-A2, fasting glucose target ≤6.7 mmol/L
  HbA1c reduction from baseline to Week 32, mean±SE: 0.6±0.1%

## C=CC(N)CCC(=O)O (stereo not shown) [Vigabatrin]
[1]
  Increase of occurrence of cilia Ca2+ flashes: 3-4 fold

## O=C(CO)[C@@H](O)[C@H](O)[C@H](O)CO [fructose]
[9]; HFHS mice
  contribution of acetyl-CoA to oleate synthesis: 7 ± 2%
  contribution of acetyl-CoA to palmitoleate synthesis: 7 ± 2%
  contribution of acetyl-CoA to the synthesis of SFA: 18 ± 3%
[9]; HS mice
  contribution of acetyl-CoA to oleate synthesis: 16 ± 3%
  contribution of acetyl-CoA to palmitoleate synthesis: 18 ± 3%
[9]; HS mice, mean ± standard error
  contribution of acetyl-CoA to the synthesis of SFA: 28 ± 4%

## insulin
[10]; H9C2, 20mM glucose 3 months
  2-NBD-Glucose uptake after insulin: 17%
[10]; H9C2, 20mM glucose 6 months
  2-NBD-Glucose uptake after insulin: 8%
[10]; H9C2, 30mM glucose 3 months
  2-NBD-Glucose uptake after insulin: 15%
[10]; H9C2GLUT4, 20mM glucose 3 months
  2-NBD-Glucose uptake after insulin: 31%
[10]; H9C2GLUT4, 20mM glucose 6 months
  2-NBD-Glucose uptake after insulin: 27%
[10]; H9C2GLUT4, 30mM glucose 3 months
  2-NBD-Glucose uptake after insulin: 43%

## CCCCCCCC/C=C\CCCCCCCC(=O)O [OA, oleate]
[2]; INS1E-ctr cells, 500 μM each fatty acid, MTT
  Cell viability: 91%

## CC[C@H](C)[C@H](NC(=O)[C@H](Cc1ccccc1)NC(=O)[C@H](CCC(=O)O)NC(=O)[C@H](CCCCNC(=O)COCCOCCNC(=O)COCCOCCNC(=O)CC[C@H](NC(=O)CCCCCCCCCCCCCCCCC(=O)O)C(=O)O)NC(=O)[C@H](C)NC(=O)[C@H](C)NC(=O)[C@H](CCC(N)=O)NC(=O)CNC(=O)[C@H](CCC(=O)O)NC(=O)[C@H](CC(C)C)NC(=O)[C@H](Cc1ccc(O)cc1)NC(=O)[C@H](CO)NC(=O)[C@H](CO)NC(=O)[C@@H](NC(=O)[C@H](CC(=O)O)NC(=O)[C@H](CO)NC(=O)[C@@H](NC(=O)[C@H](Cc1ccccc1)NC(=O)[C@@H](NC(=O)CNC(=O)[C@H](CCC(=O)O)NC(=O)C(C)(C)NC(=O)[C@@H](N)Cc1cnc[nH]1)[C@@H](C)O)[C@@H](C)O)C(C)C)C(=O)N[C@@H](C)C(=O)N[C@@H](Cc1c[nH]c2ccccc12)C(=O)N[C@@H](CC(C)C)C(=O)N[C@H](C(=O)N[C@@H](CCCNC(=N)N)C(=O)NCC(=O)N[C@@H](CCCNC(=N)N)C(=O)NCC(=O)O)C(C)C [semaglutide]
[11]; with SGLT-2i
  Premature treatment discontinuations due to AEs: 5.5%
[11]; without SGLT-2i
  Premature treatment discontinuations due to AEs: 13.4%

## Insulin Glargine 300U/mL [Gla-300]
[12]; 95%CI -0.29;0.27
  Between group mean difference in HbA1c at 6 months, Gla-300 vs IDeg-100: 0.01%
[12]
  Incidence rate of blood glucose <54 mg/dl: 0.02 episodes per patient-months
  Incidence rate of blood glucose ≤70 mg/dl: 0.13 episodes per patient-months
  FBG change at 6 months: -63 mg/dL
  FBG reduction at 6 months: 3.5 mmol/L
  HbA1c reduction from baseline to 12 months: -1.71%
  HbA1c change from baseline to 6 months: -1.70%

## NCC(CC(=O)O)c1ccc(Cl)cc1 (stereo not shown) [Baclofen]
[1]
  Increase of occurrence of cilia Ca2+ flashes: 3-4 fold

## CC(=O)C=O [MG, methylglyoxal]
[10]; 20mM glucose, printed 54% vs 44%
  2-NBD-Glucose uptake after MG: 54%
[10]; 30 mM glucose, printed 50% vs 39%
  2-NBD-Glucose uptake after MG: 50%
[13]; 500 μM, Hspa1a/Hspa1b KO cells
  Hspa9 mRNA, mean: 1.52 fold
  Hspa9 protein, mean: 3.17
  Hspd1 mRNA, mean: 1.57 fold
  Hspd1 protein, mean: 3.84
[13]; 500 μM, wild-type cells
  Drp1 mRNA: 1.39 fold
  Hspa1a mRNA, mean: 1.57 fold
  Hspa1a/Hspa1b protein level, mean: 1.56 fold
  Hspa1b mRNA, mean: 1.78 fold
  Hspa9 mRNA, mean: 1.42 fold
  Hspa9 protein, mean: 1.96 fold
  Hspd1 mRNA, mean: 2.11 fold
  Hspd1 protein, mean: 2.35 fold
[13]; Hspa1a/Hspa1b KO cells
  Drp1 mRNA, mean: 2.11
[13]; after MG treatment
  Bnip3, mean: 0.39 fold
  Parkin, mean: 0.45 fold
  Pink1, mean: 0.69 fold

## O=C(O)CCCc1ccccc1 [NaPB, sodium-phenylbutyrate]
[14]; [17]
  Peripheral insulin sensitivity, higher than placebo: 27%
  ΔRd (insulin-stimulated glucose disposal rate minus baseline): 13.2 ± 1.8 µmol/kg/min
[14]; 4.8 g/m²/day for 2 weeks, LCMS
  Increase of plasma phenylbutyrate levels vs placebo: 5.5 fold
[14]; after 2 weeks
  Fasting glucose: 7.8 ± 0.4 mmol/L
  Fasting plasma isoleucine: 105.2 ± 3.5 µmol/L
  Fasting plasma leucine: 168.7 ± 5.1 µmol/L
  Fasting plasma valine: 275.3 ± 10.3 µmol/L
[14]; clamp
  Peripheral insulin-mediated glucose oxidation: 11.9 ± 0.7 µmol/kg/min
  ΔRER (metabolic flexibility): 0.09 ± 0.01
[14]; skeletal muscle ex vivo
  O2-flux, maximally coupled mitochondrial respiration fueled by pyruvate: 74.0 ± 4.1 pmol/s/mg

## CC[C@H](C)[C@H](NC(=O)[C@H](Cc1ccccc1)NC(=O)[C@H](CCC(=O)O)NC(=O)[C@H](CCCCNC(=O)COCCOCCNC(=O)COCCOCCNC(=O)CC[C@H](NC(=O)CCCCCCCCCCCCCCCCC(=O)O)C(=O)O)NC(=O)[C@H](C)NC(=O)[C@H](C)NC(=O)[C@H](CCC(N)=O)NC(=O)CNC(=O)[C@H](CCC(=O)O)NC(=O)[C@H](CC(C)C)NC(=O)[C@H](Cc1ccc(O)cc1)NC(=O)[C@H](CO)NC(=O)[C@H](CO)NC(=O)[C@@H](NC(=O)[C@H](CC(=O)O)NC(=O)[C@H](CO)NC(=O)[C@@H](NC(=O)[C@H](Cc1ccccc1)NC(=O)[C@@H](NC(=O)CNC(=O)[C@H](CCC(=O)O)NC(=O)C(C)(C)NC(=O)[C@@H](N)Cc1cnc[nH]1)[C@@H](C)O)[C@@H](C)O)C(C)C)C(=O)N[C@@H](C)C(=O)N[C@@H](Cc1c[nH]c2ccccc12)C(=O)N[C@@H](CC(C)C)C(=O)N[C@H](C(=O)N[C@@H](CCCNC(=N)N)C(=O)NCC(=O)N[C@@H](CCCNC(=N)N)C(=O)NCC(=O)O)C(C)C [SEMA, semaglutide]
[15]
  Diarrhoea: 12%
  Nausea: 18%
  Vomiting: 8%

## Insulin Degludec 100 U/mL [IDeg-100]
[12]
  Incidence rate of blood glucose <54 mg/dl: 0.02 episodes per patient-months
  Incidence rate of blood glucose ≤70 mg/dl: 0.14 episodes per patient-months
  FBG change at 6 months: -61 mg/dL
  FBG reduction at 6 months: 3.4 mmol/L
  HbA1c reduction from baseline to 12 months: -1.44%
  HbA1c change from baseline to 6 months: -1.69%

## NCCC(=O)N[C@@H](Cc1cnc[nH]1)C(=O)O [carnosine]
[16]; exercise with carnosine
  Stimulation of coupled mitochondrial respiration rate in permeabilized muscle fibers, compared to exercise alone: 36.5%
[16]; [18]
  Improvement in aerobic fitness (VO2max): 14.8%
  Improvement in metabolic flexibility (ΔRQ): 7.3%
[16]; training combined with carnosine 2g/day, 3 months
  Improvement in sit-to-stand test: 9.2%
